According to PMC8286840, “Identifying SARS-CoV-2 antiviral compounds by screening for small molecule inhibitors of Nsp3 papain-like protease” (Biochemical Journal, 2021):
Counter-ions that a name gives are not always drawn. Like-named read-outs stand apart in the source and are kept apart here.

Columns and labels:
[1] = target: T1, SARS-CoV-2 PLpro (nsp3 1564–1878) (Severe acute respiratory syndrome coronavirus 2, UniProt P0DTD1); experiment: biochemical; design: FRET-quenched peptide (Pro3) cleavage by PLpro, 10 min pre-incubation, slope over 20 min, normalised to no-compound control; details: low concentration screen, read-out: % of control remaining
[2] = target: T1, SARS-CoV-2 PLpro (nsp3 1564–1878); experiment: biochemical; design: FRET-quenched peptide (Pro3) cleavage by PLpro, 10 min pre-incubation, slope over 20 min, normalised to no-compound control; details: high concentration screen, read-out: % of control remaining

CC(C)(OO)c1ccccc1 [Cumene hydroperoxide]
remaining activity at 1.25 µM ([1]; Well no.=3843): 103% | remaining activity at 3.75 µM ([2]; Well no.=3843): 100%

CN(C)C(=O)COC(=O)Cc1ccc(OC(=O)c2ccc(NC(=N)N)cc2)cc1 [Camostat mesylate]
remaining activity at 1.25 µM ([1]; Well no.=5405): 101% | remaining activity at 3.75 µM ([2]; Well no.=5405): 109%

CCOC(=O)/C=C(C)/C=C/C=C(C)/C=C/c1c(C)cc(OC)c(C)c1C [Etretinate]
remaining activity at 1.25 µM ([1]; Well no.=2070): 102% | remaining activity at 3.75 µM ([2]; Well no.=2070): 101%

N=C(N)SCCc1ccc(CCSC(=N)N)cc1 [1,4-PBIT dihydrobromide]
remaining activity at 1.25 µM ([1]; Well no.=1255): 104% | remaining activity at 3.75 µM ([2]; Well no.=1255): 105%

CC(C)C(=O)Nc1ncc(-c2cc(C(F)F)nn2-c2c(Cl)cccc2Cl)s1 [BMS-5]
remaining activity at 1.25 µM ([1]; Well no.=2705): 100% | remaining activity at 3.75 µM ([2]; Well no.=2705): 96.9%

CCOC(=O)[C@H](CCc1ccccc1)N[C@H]1CS[C@H](c2cccs2)CN(CC(=O)O)C1=O [Temocapril (hydrochloride)]
remaining activity at 1.25 µM ([1]; Well no.=8218): 103% | remaining activity at 3.75 µM ([2]; Well no.=8218): 99.9%

C#C[C@]1(O)CC[C@H]2[C@@H]3CCC4=CC(=O)CC[C@@H]4[C@H]3CC[C@@]21C [Norethindrone]
remaining activity at 1.25 µM ([1]; Well no.=2013): 96.6% | remaining activity at 3.75 µM ([2]; Well no.=2013): 96.6%

Cc1ccc(Sc2ccccc2N2CCNCC2)c(C)c1 [Vortioxetine]
remaining activity at 1.25 µM ([1]; Well no.=6269): 102% | remaining activity at 3.75 µM ([2]; Well no.=6269): 102%

Nc1c2c(nc3ccccc13)CCCC2 [9-Amino-1,2,3,4-tetrahydroacridine hydrochloride]
remaining activity at 1.25 µM ([1]; Well no.=157): 102% | remaining activity at 3.75 µM ([2]; Well no.=157): 102%

N[C@@H](Cc1cnc[nH]1)C(=O)N[C@@H](Cc1cnc[nH]1)C(=O)N[C@@H](Cc1cnc[nH]1)C(=O)N[C@@H](Cc1cnc[nH]1)C(=O)N[C@@H](Cc1cnc[nH]1)C(=O)N[C@@H](Cc1cnc[nH]1)C(=O)O [Hexa-His]
remaining activity at 1.25 µM ([1]; Well no.=8312): 94.5% | remaining activity at 3.75 µM ([2]; Well no.=8312): 96.4%

CCC(=O)c1ccc2c(c1)N(CCCN(C)C)c1ccccc1S2 [Propionylpromazine hydrochloride]
remaining activity at 1.25 µM ([1]; Well no.=1301): 103% | remaining activity at 3.75 µM ([2]; Well no.=1301): 106%

CCCCCCCCCCC/C=C\C(C)(C)/C=C\CCCC(=O)O [7,7-Dimethyleicosadienoic acid]
remaining activity at 1.25 µM ([1]; Well no.=4313): 101% | remaining activity at 1.25 µM ([1]; Well no.=4412): 100% | remaining activity at 3.75 µM ([2]; Well no.=4313): 99.2% | remaining activity at 3.75 µM ([2]; Well no.=4412): 101%

CCCc1c(-c2ccc(O)cc2)nn(-c2ccc(O)cc2)c1-c1ccc(O)cc1 [1,3,5-tris(4-hydroxyphenyl)-4-propyl-1H-pyrazole]
remaining activity at 1.25 µM ([1]; Well no.=468): 105% | remaining activity at 3.75 µM ([2]; Well no.=468): 109%

NC(=O)c1ncn([C@@H]2O[C@H](CO)[C@@H](O)[C@H]2O)c1O [Mizoribine]
remaining activity at 1.25 µM ([1]; Well no.=876): 105% | remaining activity at 3.75 µM ([2]; Well no.=876): 107%

CC1=C(/C=C/C(C)=C/C=C/C(C)=C\C(=O)O)C(C)(C)CCC1 [13-cis-retinoic acid]
remaining activity at 1.25 µM ([1]; Well no.=1348): 95.9% | remaining activity at 3.75 µM ([2]; Well no.=1348): 101%

N#C/C(=C\c1ccc(O)c(O)c1)C(=O)N1CCc2ccccc21 [Tyrphostin AG 528]
remaining activity at 1.25 µM ([1]; Well no.=1193): 92.5% | remaining activity at 3.75 µM ([2]; Well no.=1193): 93.3%

CN1Cc2c(N)cccc2C(c2ccccc2)C1 (stereo not shown) [Nomifensine maleate]
remaining activity at 1.25 µM ([1]; Well no.=1139): 94.1% | remaining activity at 3.75 µM ([2]; Well no.=1139): 96.7%

NCCCCCNCC12CC3CC(CC(C3)C1)C2 [IEM 1754 dihydrobroMide]
remaining activity at 1.25 µM ([1]; Well no.=5175): 97.7% | remaining activity at 3.75 µM ([2]; Well no.=5175): 99.2%

CN1CCC(=C2c3ccccc3CC(=O)c3sccc32)CC1 [Ketotifen fumarate]
remaining activity at 1.25 µM ([1]; Well no.=1069): 101% | remaining activity at 3.75 µM ([2]; Well no.=1069): 95.3%

CC(=O)OCC(=O)[C@@]1(O)CC[C@H]2[C@@H]3CCC4=CC(=O)CC[C@]4(C)[C@H]3[C@@H](O)C[C@@]21C [Hydrocortisone (acetate)]
remaining activity at 1.25 µM ([1]; Well no.=7342): 105% | remaining activity at 3.75 µM ([2]; Well no.=7342): 109%

OC[C@H]1O[C@@H](Oc2cc(O)cc(/C=C/c3ccc(O[C@@H]4O[C@H](CO)[C@@H](O)[C@H](O)[C@H]4O)cc3O)c2)[C@H](O)[C@@H](O)[C@@H]1O [Mulberroside A]
remaining activity at 1.25 µM ([1]; Well no.=6340): 93% | remaining activity at 3.75 µM ([2]; Well no.=6340): 90.9%

CC1(C)CN2C(CSC(=NC3CCCCC3)NC3CCCCC3)=CSC2=N1 [IT1t (dihydrochloride)]
remaining activity at 1.25 µM ([1]; Well no.=6942): 94.3% | remaining activity at 1.25 µM ([1]; Well no.=8463): 107% | remaining activity at 3.75 µM ([2]; Well no.=6942): 93.3% | remaining activity at 3.75 µM ([2]; Well no.=8463): 106%

COc1ccccc1N1CCN(CCCCNC(=O)c2ccc3ccccc3c2)CC1 [BP897]
remaining activity at 1.25 µM ([1]; Well no.=6013): 106% | remaining activity at 3.75 µM ([2]; Well no.=6013): 98.6%

Nc1c(C(=O)O)c2nc3c(C(=O)O)cccc3oc-2cc1=O [Cinnabarinic Acid]
remaining activity at 1.25 µM ([1]; Well no.=5384): 91.8% | remaining activity at 3.75 µM ([2]; Well no.=5384): 96.7%

C[C@]12CCC(=O)C=C1CC[C@@H]1[C@@H]2CC[C@]2(C)C(=O)CC[C@@H]12 [4-Androstene-3,17-dione]
remaining activity at 1.25 µM ([1]; Well no.=154): 103% | remaining activity at 3.75 µM ([2]; Well no.=154): 99.2%

O=C1CC2(CCCC2)CC(=O)N1CCCCN1CCN(c2ncccn2)CC1 [Buspirone hydrochloride]
remaining activity at 1.25 µM ([1]; Well no.=319): 98.2% | remaining activity at 3.75 µM ([2]; Well no.=319): 99.4%

CN(C)CCCn1cc(C2=C(c3c[nH]c4ccccc34)C(=O)NC2=O)c2ccccc21 [Bisindolylmaleimide I]
remaining activity at 1.25 µM ([1]; Well no.=2325): 97.2% | remaining activity at 3.75 µM ([2]; Well no.=2325): 98.8%

O=C1C(C2=C3c4ccccc4NC3/C(=C\c3ccc(O)cc3)C2=O)=C2C(=Nc3ccccc32)/C1=C\c1ccc(O)cc1 (stereo not shown) [Scytonemin, Lyngbya sp.]
remaining activity at 1.25 µM ([1]; Well no.=2669): 96.6% | remaining activity at 3.75 µM ([2]; Well no.=2669): 101%

COc1cc2nc(N3CCN(C(=O)c4ccco4)CC3)nc(N)c2cc1OC [Prazosin.HCl]
remaining activity at 1.25 µM ([1]; Well no.=1689): 103% | remaining activity at 3.75 µM ([2]; Well no.=1689): 100%

CCN1CCC[C@H]1CNC(=O)c1c(OC)ccc(Br)c1OC [Remoxipride]
remaining activity at 1.25 µM ([1]; Well no.=1819): 100% | remaining activity at 3.75 µM ([2]; Well no.=1819): 99.4%

S=C=Nc1cccc(NC(=S)NCCCCNC(=S)Nc2cccc(N=C=S)c2)c1 [MRS 2578]
remaining activity at 1.25 µM ([1]; Well no.=4797): 93.1% | remaining activity at 1.25 µM ([1]; Well no.=7275): 95% | remaining activity at 3.75 µM ([2]; Well no.=7275): 95.2%

O=c1n(CCCN2CCN(c3cccc(Cl)c3)CC2)nc2ccccn12 [Trazodone hydrochloride]
remaining activity at 1.25 µM ([1]; Well no.=1339): 102% | remaining activity at 3.75 µM ([2]; Well no.=1339): 104%

CC(=O)S[C@@H]1CC2=CC(=O)CC[C@]2(C)[C@H]2CC[C@@]3(C)[C@@H](CC[C@@]34CCC(=O)O4)[C@H]12 [Spironolactone]
remaining activity at 1.25 µM ([1]; Well no.=1266): 97.8% | remaining activity at 1.25 µM ([1]; Well no.=2253): 93% | remaining activity at 3.75 µM ([2]; Well no.=1266): 93.5% | remaining activity at 3.75 µM ([2]; Well no.=2253): 82.7%
